{
  "source": "patent US20170105407A1",
  "about": "“COMPOSITIONS AND METHODS FOR ENHANCING RED BLOOD CELL STORAGE TIME AND SURVIVABILITY USING NITRIC OXIDE RELEASING HYBRID HYDROGEL NANOPARTICLES” (ALBERT EINSTEIN COLLEGE OF MEDICINE, INC., priority 2014, published 2017)",
  "key": {"[1]": {"system": "RBC", "test": "Mechanical properties (flexibility) of RBCs during storage", "format": "cell-based", "conditions": "at 1 week, 3 weeks, 5 weeks and 6 weeks of storage", "source_text": "In this example, as shown in FIGS. 16(A)-(D), RBC flexibility is slowed for RBCs treated with NOnps and GSNO."}, "[2]": {"system": "stored blood", "test": "Buildup of methemoglobin, plasma nitrite and plasma nitrate in stored blood over six weeks", "format": "cell-based", "conditions": "over a period of six weeks", "description": "In this example, the buildup of methemoglobin (MetHb), plasma nitrite and plasma nitrate was also measured over a period of six weeks. […] Nitrite levels were measured because higher nitrate levels are associated with positive RBC health and functionality. […] NO supplementation limits the progressive loss of nitrite and nitrate in RBCs, and such loss of nitrite and nitrate has been correlated with an increase in oxidative damage."}, "[3]": {"system": "stored RBCs", "test": "RBC glycolytic metabolism during storage over 42 days", "format": "cell-based", "conditions": "for ATP produced vs control / Adenine in stored blood vs control / Citrate in stored blood vs control / Glucose in stored blood vs control / Lactate produced vs control / Mannitol in stored blood vs control / Pyruvate produced vs control: over 42 days", "description": "In this example, the glyocotic metabolic mechanism was tested in stored blood. […] The main metabolic pathway of RBC is glycolysis and is primarily fueled by glucose. Glucose enters a RBC and is metabolized to produce ATP, and also pyruvate which in turn is converted to lactate. […] This pathway serves primarily to reduce nicotinamide adenine dinucleotide phosphate (NADPH). In conjunction with the glutathione reductase/peroxidase system, NADPH maintains the sulfhydryl groups of globin in their reduced state.\nIn order to test RBC metabolism, four sets of stored RBCs were tested: RBCs treated with NO releasing nanoparticles (NOnp), RBCs treated with the S-nitrosothiol derivative of glutathione (GSNO), RBCs treated with NONOates (DTPANO), and a control group of RBCs that were not supplemented. GSNO, which due to its long half-life and ability to transnitrosate, has greater antimicrobial activity then NOnp alone against clinical isolates of gram positive and negative multi drug resistant pathogens. Given both the extended bioactive lifetime of GSNO compared to free NO and the potential differences in target tissues/cells and the success achieved with the NO releasing nanoparticle platform, it was undertaken to produce nanoparticles that were similar in character and structure, but with the capability of either releasing GSNO species or transferring NO via S-transnitrosation. FIGS. 8(A)-(D) show the behavior of various elements of the first step of the glycotic pathway over a period of 42 days. […] FIGS. 8(B)-(D) show the amount of adenine, mannitol, and citrate respectively. […] This is important because these components help RBCs resynthesize the energy carrier adenosine triphosphate (ATP). ATP is a key component in extending the shelf life of stored blood. FIGS. 9(A)-(D) depict the key components in the next step of the glycotic pathway, wherein ATP is created and pyruvate is produced and then converted to lactate. The longevity of stored blood increases as more ATP is produced and less pyruvate and lactate is produced. […] Overall, NOnp and GSNO treated RBC are much slower to lose initial metabolic markers of RBC health than both untreated RBCs and those treated with NONOates."}, "[4]": {"system": "stored RBCs", "test": "Storage lesion parameters of stored RBCs over 42 days (2,3-DPG, potassium, pH, free hemoglobin, microparticles)", "format": "cell-based, human, hamster, rat", "conditions": "for 2,3 DPG level during storage / Levels of free hemoglobin (hemolysis) during storage / Potassium levels during storage / pH (acidification) during storage: all species (human, hamster, rat), 42 days storage; for Microparticle formation in stored blood: human, hamster, rat blood", "description": "NO releasing nanoparticles were added to the blood at 10 mg per 125 mL of whole blood. Stored blood was treated with the nanoparticles once every 48 hours at the above described dosing over a period of 21 days for the in vivo transfusion studies. The storage lesion studies were extended to a period of 6 weeks.\nIn this example, the procedure was substantially the same as Example 6.1, except that transfused blood was stored for 42 days, and included human, hamster, and rat blood. FIGS. 5(D)-(F) show potassium levels and hemolysis over a six week period.\nHuman RBC units were purchased from the San Diego Blood bank. Blood were preserved in blood collection bags and kept at 4° C.\nBlood was obtained from donor rats (˜300 g) Animals were anaesthetized (pentobarbital 60 mg/kg ip) and a femoral catheter (PE-50) was implanted and blood was drawn into 10 mL syringes containing 1.5 mL of citrate, phosphate, dextrose adenine solution (CPDA-1). Blood was leukoreduced, by passing through a neonatal high efficiency leukocyte reduction filter Purecell NEO (Pall Company, East Hills, N.Y.). The leukoreduced blood was centrifuged for 10 minutes at 1350 rpm and supernatant was partially removed to achieve approximately 75% Hct. Packed cell were transferred under sterile conditions to a preservative free blood collection tube and kept at 4° C.\nBlood was obtained from donor hamsters (˜80 g). Hamsters were anaesthetized (pentobarbital 60 mg/kg ip) and femoral catheter implanted. The blood from three hamsters was drawn into 10 mL syringes containing 1.5 mL CPDA-1, then leukoreduced as described before and centrifuged. Hamster packed cells were preserved in blood collection tube and kept at 4° C."}},
  "note": "Entries after “also recorded” stand apart in the source; their conditions may differ.",
  "data": [
    {"smiles": "NCCCN(CCCN)/[N+]([O-])=N/O", "note": "[DPTANO]", "values": [
      {"measurement": "RBC flexibility", "setting": "[1]", "value": "did not vary substantially from that of untreated blood"},
      {"measurement": "Methemoglobin (MetHb) formation", "setting": "[2]", "value": "more met Hb formation; also recorded: increased the formation of met-hemoglobin"},
      {"measurement": "ATP produced vs control", "setting": "[3]", "value": "only produces slightly less than the control"},
      {"measurement": "Adenine in stored blood vs control", "setting": "[3]", "value": "retained higher amounts of each component than the control"},
      {"measurement": "Citrate in stored blood vs control", "setting": "[3]", "value": "retained higher amounts of each component than the control"},
      {"measurement": "Glucose in stored blood vs control", "setting": "[3]", "value": "maintaining slightly higher amounts of glucose"},
      {"measurement": "Lactate produced vs control", "setting": "[3]", "value": "the control produces much more pyruvate and lactate"},
      {"measurement": "Mannitol in stored blood vs control", "setting": "[3]", "value": "retained higher amounts of each component than the control"},
      {"measurement": "Pyruvate produced vs control", "setting": "[3]", "value": "the control produces much more pyruvate and lactate"},
      {"measurement": "2,3 DPG level during storage", "setting": "[4]", "value": "prevented 2,3 DPG rapid decrease"},
      {"measurement": "Levels of free hemoglobin (hemolysis) during storage", "setting": "[4]", "value": "either did not significantly differentiate from the control, or performed worse"},
      {"measurement": "Potassium levels during storage", "setting": "[4]", "value": "either did not significantly differentiate from the control, or performed worse"},
      {"measurement": "pH (acidification) during storage", "setting": "[4]", "value": "either did not significantly differentiate from the control, or performed worse"},
      {"measurement": "Microparticle formation in stored blood", "setting": "[4]", "value": "faired similarly or worse than the control"}
    ]},
    {"smiles": "N[C@@H](CCC(=O)N[C@@H](CSN=O)C(=O)NCC(=O)O)C(=O)O", "note": "[GSNO, S-nitrosothiol derivative of glutathione]", "values": [
      {"measurement": "RBC flexibility", "setting": "[1]", "value": "remained more flexible than untreated and DPTANO treated blood"},
      {"measurement": "Methemoglobin (MetHb) formation", "setting": "[2]", "value": "did not generate significantly more MetHb than the control"},
      {"measurement": "Glucose-6-phosphate dehydrogenase (G6PD) vs control", "setting": "[3]; during storage", "value": "maintained or even enhanced"},
      {"measurement": "Glyceraldehyde 3-phosphate dehydrogenase (GAPDH) vs control", "setting": "[3]; during storage", "value": "maintained or even enhanced"},
      {"measurement": "Hexokinase (HK) vs control", "setting": "[3]; during storage", "value": "maintained or even enhanced"},
      {"measurement": "Phosphofructokinase (PFK) vs control", "setting": "[3]; during storage", "value": "maintained or even enhanced"},
      {"measurement": "Pyruvate kinase (PK) vs control", "setting": "[3]; during storage", "value": "maintained or even enhanced"},
      {"measurement": "ATP produced vs control", "setting": "[3]", "value": "produce more ATP than the control"},
      {"measurement": "Adenine in stored blood vs control", "setting": "[3]", "value": "retained higher amounts of each component than the control"},
      {"measurement": "Citrate in stored blood vs control", "setting": "[3]", "value": "retained higher amounts of each component than the control"},
      {"measurement": "Glucose in stored blood vs control", "setting": "[3]", "value": "maintaining slightly higher amounts of glucose"},
      {"measurement": "Lactate produced vs control", "setting": "[3]", "value": "the control produces much more pyruvate and lactate"},
      {"measurement": "Mannitol in stored blood vs control", "setting": "[3]", "value": "retained higher amounts of each component than the control"},
      {"measurement": "Pyruvate produced vs control", "setting": "[3]", "value": "the control produces much more pyruvate and lactate"},
      {"measurement": "2,3 DPG level during storage", "setting": "[4]", "value": "prevented 2,3 DPG rapid decrease"},
      {"measurement": "Levels of free hemoglobin (hemolysis) during storage", "setting": "[4]", "value": "did not increase the levels of free hemoglobin"},
      {"measurement": "Potassium levels during storage", "setting": "[4]", "value": "slowed down potassium levels"},
      {"measurement": "pH (acidification) during storage", "setting": "[4]", "value": "prevented rapid acidification"},
      {"measurement": "Microparticle formation in stored blood", "setting": "[4]", "value": "reduced microparticle formation"}
    ]}
  ]
}
